Experimental data as given in patent US20150182667A1, “Composition with Biofilm Dispersal Agents” (Vanderbilt University, priority 2012, published 2015).
Where two headings read alike, the source gives them in different places.

Assays:
[1] = test system: planktonic S. aureus clinical strains (UAMS-1, 103-700); assay: MIC by CLSI broth microdilution, planktonic bacteria; type: cell-based, Staphylococcus aureus; conditions: for MIC: Staphylococcus aureus, 18 h
Protocol: Overnight cultures of bacterial strains were diluted to a final concentration of 5×10^5 CFU/ml in MHB-II. The resulting bacterial suspension was aliquoted (100 μL) into polystyrene round-bottom 96-well plates containing 100 μL of a 2× concentration of a previously serially diluted (1:2) antibiotic. Each antimicrobial tested was serially diluted 10 times. Following the addition of bacteria, the microtiter plate was covered and was incubated under stationary conditions at 37° C. in the presence of 1× antibiotics. […] MICs of antibiotics were determined in triplicate according to the Clinical and Laboratory Standards Institute (CLSI) broth microdilution as described by the performance standards for antimicrobial susceptibility testing (M100-S22, January 2012).

[2] = test system: biofilm derived S. aureus clinical strains (UAMS-1, 103-700); assay: Biofilm susceptibility, Calgary Biofilm device (MBEC plates): MBIC and viable CFU; type: cell-based, Staphylococcus aureus; conditions: for Biofilm (MBIC) 103-700: S. aureus 103-700 48 h biofilm; for Biofilm (MBIC) 103-700 / Biofilm (MBIC) UAMS-1: 24 h challenge, * = with 5 mM D-AA; for Biofilm (MBIC) UAMS-1: S. aureus UAMS-1 48 h biofilm; for % Decrease + SD in CFU, 8 μg/mL / % Decrease + SD in CFU, 16 μg/mL / % Decrease + SD in CFU, 32 μg/mL / % Decrease + SD in CFU, 64 μg/mL: S. aureus UAMS-1 biofilm; for % Decrease + SD in CFU, 8 μg/mL: antibiotic 8 μg/mL; for % Decrease + SD in CFU, 16 μg/mL: antibiotic 16 μg/mL; for % Decrease + SD in CFU, 32 μg/mL: antibiotic 32 μg/mL; for % Decrease + SD in CFU, 64 μg/mL: antibiotic 64 μg/mL, vs non-treated biofilms; for effect of the antimicrobial against biofilms when combined with the D-AA mixture: S. aureus biofilms, both strains, bacterial CFUs within biofilms
Protocol: Biofilm susceptibility to antimicrobial agents in the presence and absence of D-AA was determined using the Calgary Biofilm device. Briefly, biofilms from overnight cultures were established as above on individual pegs of the minimum biofilm eradication concentration (MBEC) plates (Innovotech, Canada) with agitation for 48 h at 37° C. Following incubation, the lid with pegs was removed from the incubation plate, washed by re-suspending pegs into plate with wells containing 200 μl of 1×PBS, then placed into a 96-well challenge plate containing pre-diluted antibiotics with or without an […] for an additional 24 h at 37° C. Following challenge plates were washed, and the attached viable cells on PEGs within the biofilm were determined by plating serial dilutions onto blood agar plates (Remel). Corresponding minimal biofilm inhibitory concentration (MBIC) was also determined by measuring the optical density in individual wells of the challenge plate at 600 nm. The lowest concentration of antibiotic for which an optical density of <0.100 was recorded as the MBIC. For each antibiotic, the MBIC was determined in the presence or absence of a mixture of D-AA (D-Phenylalanine, D-Methionine, and D-Tryptophan) at an equimolar concentration of 5 mM. Three independent experiments were performed for each of these assays, with a minimum of 3 replicates.

[3] = test system: S. aureus clinical isolates biofilms; assay: Biofilm dispersal and prevention, crystal violet assay (Example 3); type: cell-based; conditions: for dispersal of established biofilms (biofilm biomass): panel of clinical isolates of methicillin-resistant S. aureus (n=5), 5 mM, 24 h, FIGS. 8A, 8C; for biofilm dispersal in pre-screening of eight individual D-AAs: pre-formed biofilms of four clinical isolates, 0.001-50 mM, FIG. 7
Protocol: Like in Example 1, biofilm formation was assessed under static conditions using polystyrene 96-well plates (Corning, Inc.). Overnight bacterial cultures were diluted to an OD600 of 0.1 in TSB (˜10^7 CFU/mL), and 20 μL were added to individual wells filled with 180 μL of media and incubated at 37° C. for 48 h. To assess the biofilm dispersal activity of D-AAs, the culture medium from biofilms was removed after 48 h and 200 μL fresh medium containing either an individual D-AA or an equimolar mixture of D-AAs (1:1:1: D-Met:D-Pro:D-Trp) were added at the indicated concentrations. After treatment with D-AA(s) for 24 h, plates were gently washed with 1× phosphate buffered saline (PBS) to remove unattached cells, stained with 0.1% (w/v) crystal violet (Sigma Aldrich) for 10 min, rinsed with PBS, and then solubilized with 80% (v/v) ethanol. Biofilm biomass was determined by measuring the absorbance of solubilized stain at 570 nm using a microtiter plate reader. For assays measuring the ability of D-AA to block biofilm formation, cells were grown under biofilm conditions as above in the presence of media containing D-AAs. Representative images of the plates of CV-stained biofilms following treatment with D-AA prior to solubilization were taken using a digital camera. All assays were repeated in triplicate with a minimum of four technical replicates.

[4] = test system: S. aureus clinical isolate biofilms; assay: Biofilm dispersal and prevention, crystal violet 96-well assay (Example 1); type: cell-based, Staphylococcus aureus; conditions: 5 mM; for biofilm dispersal against panel of clinical isolates (biofilm biomass OD570): S. aureus clinical isolates, FIGS. 3A, 3C; for biofilm dispersal in pre-screening of eight D-AAs: pre-formed S. aureus biofilms, FIG. 1
Protocol: (§1) Biofilm formation was performed under static conditions in polystyrene 96-well plates (Corning, Inc., Corning, N.Y.). Briefly, overnight bacterial cultures were diluted to an OD600 of 0.1 in CA-MHB and 10 μL was added to individual wells filled with 190 μl of media and incubated at 37° C. for 48 h without shaking for biofilm growth. Following incubation, culture media was removed and 200 μL media containing individual D-AA at concentrations of 5 mM-1 nM was added. Plates were incubated for an additional 24 h at 37° C. After treatment, plates were gently washed with 1× phosphate buffered saline (PBS; pH 7.4) to remove non-adherent bacteria. Biofilms (i.e. attached cells) were then stained with 0.1% (w/v) crystal violet for 10 min, washed, followed by solubilization of crystal violet with 33% (v/v) acetic acid for 10 min. Biofilm biomass was determined by measuring the absorbance at 570 nm using a microtiter plate reader. For assays measuring the ability of D-AA to block biofilm formation, cells were grown under biofilm conditions as above in the presence of media containing D-AA. Three independent experiments with a minimum of 4 replicates were performed for each experimental assay. Representative images of the plates of CV stained biofilms following treatment with D-AA, prior to solubilization, were taken using a digital camera.

[5] = test system: P. aeruginosa clinical isolate biofilms; assay: as above; type: cell-based, Pseudomonas aeruginosa; conditions: 5 mM; for biofilm dispersal against panel of clinical isolates (biofilm biomass OD570): P. aeruginosa clinical isolates, FIGS. 3A, 3C; for biofilm dispersal in pre-screening of eight D-AAs: pre-formed P. aeruginosa biofilms, FIG. 1
Protocol: as §1

[6] = Release of D-AAs from PUR scaffolds in PBS (HPLC); type: physicochemical
Protocol: Also, kinetic release assays were performed on the PUR scaffolds by incorporating 10 wt % of a 1:1:1 mixture of D-Tr:D-Pro:D-Met incubated in PBS for up to 8 weeks. The medium was be sampled twice weekly and analyzed for D-AAs by HPLC.
PUR scaffolds incorporating 10 wt % of a 1:1:1 mixture of D-Met:D-Pro:D-Trp were incubated in PBS at 37° C. under static conditions for up to 8 weeks. This mixture was evaluated in vitro, in vivo and in the release kinetics tests to account for potential interactions between D-AAs during release. The medium was sampled on days 1, 2, 4, 7, 10, 14, 21, and 28 and analyzed for D-AAs by HPLC using a system equipped with a Waters 1525 binary pump and a 2487 Dual-Absorbance Detector at 200 nm. Samples of released D-AAs were eluted through an Atlantis HILIC Silica column (5 μm particle size, 4.6 mm diameter×250 mm length) using an isocratic mobile phase flowing at 1 mL/min. The mobile phase contained 2.5 mM potassium dihydrogen phosphate with pH=2.85 (A) and Acetonitrile (B) at a ratio of A25:B75. The column oven temperature was maintained at 30° C. Sample concentration was determined in reference to an external standard curve using the Waters Breeze system. Standard curves were prepared in the following concentration ranges: (1) 7.8 μg/mL to 1 mg/mL for D-Met and D-Pro and (2) […] to 100 μg/mL for D-Trp.

[7] = S. aureus 103-700, agents marked * in combination with equimolar 5 mM D-AA, read-out: Planktonic (MIC) 103-700
[8] = S. aureus UAMS-1, agents marked * in combination with equimolar 5 mM D-Phenylalanine, D-Tryptophan, D-Methionine, read-out: Planktonic (MIC) UAMS-1
[9] = S. aureus 103-700, agents marked * in combination with equimolar 5 mM D-AA

Structure (SMILES) | MIC [1, 7] [µg/mL] | MIC [1, 8] [µg/mL] | Biofilm (MBIC) 103-700 [2] [µg/mL] | Biofilm (MBIC) UAMS-1 [2] [µg/mL] | % Decrease + SD in CFU, 8 μg/mL [2] [%] | % Decrease + SD in CFU, 16 μg/mL [2] [%] | % Decrease + SD in CFU, 32 μg/mL [2] [%] | % Decrease + SD in CFU, 64 μg/mL [2] [%] | dispersal of established biofilms (biofilm biomass) [3] | biofilm dispersal in pre-screening of eight individual D-AAs [3] | biofilm dispersal against panel of clinical isolates (biofilm biomass OD570) [4] | biofilm dispersal in pre-screening of eight D-AAs [4] | biofilm dispersal against panel of clinical isolates (biofilm biomass OD570) [5] | biofilm dispersal in pre-screening of eight D-AAs [5] | cumulative release by day 28 ([6]; PUR scaffold with 10 wt % D-AA mixture, PBS 37° C.) [%] | burst release ([6]; day 1, PUR scaffold with 10 wt % 1:1:1 D-Met:D-Pro:D-Trp, PBS 37° C.) [%] | b parameter of Weibull model ([6]; fit of D-AA release data) | Planktonic (MIC) 103-700 [1, 9] [µg/mL] | effect of the antimicrobial against biofilms when combined with the D-AA mixture [2] | Planktonic (MIC) UAMS-1 ([1]; S. aureus UAMS-1, agents marked * in combination with equimolar 5 mM D-Phenylalanine, D-Tryptophan, D-Methionine) [µg/mL]
Cc1nnc(SCC2=C(C(=O)O)N3C(=O)[C@@H](NC(=O)Cn4cnnn4)[C@H]3SC2)s1 [CFZ, Cefazolin] | 16 | 0.5 | >128 | >128 | – | – | – | – | – | – | – | – | – | – | – | – | – | – | – | –
CCC[C@@H]1C[C@@H](C(=O)N[C@@H]([C@H]2O[C@H](SC)[C@H](O)[C@@H](O)[C@H]2O)[C@H](C)Cl)N(C)C1 [CLI, Clindamycin] | 0.5 | 0.5 | >64 | 64 | 1.8 ± 1.0 | 9.3 ± 1.8 | 32.86 ± 4.3 | 66.0 ± 3.4 | – | – | – | – | – | – | – | – | – | – | – | –
N[C@H](Cc1ccccc1)C(=O)O [D-Phe, D-phenylalanine] | – | – | – | – | – | – | – | – | effective at dispersing established biofilms | effective at dispersing biofilms | capable of significantly dispersing biofilm formation | relatively more effective at dispersing biofilms | capable of significantly dispersing biofilm formation | relatively more effective at dispersing biofilms | – | – | – | – | – | –
O=C(O)[C@H]1CCCN1 [D-Pro, D-proline] | – | – | – | – | – | – | – | – | effective at dispersing established biofilms | effective at dispersing biofilms | capable of significantly dispersing biofilm formation | relatively more effective at dispersing biofilms | capable of significantly dispersing biofilm formation | relatively more effective at dispersing biofilms | 85 | 45 | 0.35 | – | – | –
Cc1onc(-c2ccccc2)c1C(=O)N[C@@H]1C(=O)N2[C@@H]1SC(C)(C)[C@@H]2C(=O)O [OXA, Oxacillin] | 8 | 1 | >64 | >64 | – | – | – | – | – | – | – | – | – | – | – | – | – | 8 | – | –
CO[C@H]1/C=C/O[C@@]2(C)Oc3c(C)c(O)c4c(O)c(c(/C=N/N5CCN(C)CC5)c(O)c4c3C2=O)NC(=O)/C(C)=C\C=C\[C@H](C)[C@H](O)[C@@H](C)[C@@H](O)[C@@H](C)[C@H](OC(C)=O)[C@@H]1C [RIF, Rifampin] | 0.5 | 0.5 | 32 | 32 | 16.87 ± 2.9 | 34.31 ± 5.4 | 70.70 ± 4.3 | 67.36 ± 1.2 | – | – | – | – | – | – | – | – | – | – | enhanced the effect | –
CN[C@H](CC(C)C)C(=O)N[C@H]1C(=O)N[C@@H](CC(N)=O)C(=O)N[C@H]2C(=O)N[C@H]3C(=O)N[C@H](C(=O)N[C@H](C(=O)O)c4cc(O)cc(O)c4-c4cc3ccc4O)[C@H](O)c3ccc(c(Cl)c3)Oc3cc2cc(c3O[C@@H]2O[C@H](CO)[C@@H](O)[C@H](O)[C@H]2O[C@H]2C[C@](C)(N)[C@H](O)[C@H](C)O2)Oc2ccc(cc2Cl)[C@H]1O [VAN, Vancomycin] | – | – | >64 | >64 | 1.5 ± 5.7 | 15.93 ± 6.2 | 31.90 ± 7.1 | 65.97 ± 5.3 | – | – | – | – | – | – | – | – | – | 1 | enhanced the effect | 0.5
